Test results published in patent publication US9957311B2, “Surface-binding peptide” (TIKOMED AB, priority 2013, dated 2018).
Entries after “also recorded” stand apart in the source; their conditions may differ.

Legend:
Type in all cases: cell-based
MC3T3-E1 cells = assay: DNA quantification (cell number) of cells on peptide-coated Ti; settings: 48 h culture on Ti coated with 50 μg/ml peptide, FIG. 9
Description: (§1) Under aseptic conditions, implants were immersed in a 3:7 (v/v) HNO3-DI water solution for 30 min at room temperature. Then, they were rinsed with milliQ water and placed in a covered milliQ water bath for 24 h. Implants were dried with N2 and were placed in a 96-well plates. Then, 200 μl of 50 μg/ml peptide solutions in PBS were added to each implant. Absorption took place for 24 h at 37° C. in a humidified atmosphere. After 24 h peptide solutions were collected and surfaces were washed with 200 μl of PBS and air-dried in order to perform cell experiments. The surfaces were denoted Ti (uncoated Ti), P1 (Ti coated with IP10-RGD), P2 (Ti coated with IP10mut-RGD), P3 (Ti coated with IP10-RGDmut) and P4 (Ti coated with IP10mut-RGDmu).
(§2) MC3T3-E1 cells were routinely cultured at 37° C. in a humidified atmosphere of 5% CO2, and maintained in α-minimum essential medium (α-MEM) supplemented with 10% fetal bovine serum (FBS) and antibiotics (50 IU penicillin/ml and 50 μg streptomycin/ml). 7.0×10^3 cells were seeded on the peptide-coated implants. Trypan blue stain was used to determine total and viable cell number. The same number of cells was cultured in parallel in plastic culture plates in the experiment. All experiments were performed after 15 passages of the MC3T3-E1 cells.
Culture media was removed from wells and plates were frozen at −80° C. until the experiment was carried out. At the day of analysis, 100 μl of distilled water were added to each well. Plates were incubated for 1 hour at room temperature. Again, plates were frozen at −80° C. to lysate cells. Plates were thawed until reaching room temperature and 100 μl of Hoechst 33258 at 20 μg/ml in THE buffer were added. Then, 200 μl aliquots were transferred to 96-well fluorescence plates and a spectrophotometer was set to record fluorescence. Relative fluorescence units were correlated with the cell number using a linear standard curve.

Integrin α8 (Itga8) = assay: Real-time RT-PCR gene expression in MC3T3-E1 cells on peptide-coated Ti; settings: after 72 h of cell culture, FIG. 11
Description: as §1, with “Adsorption” for “Absorption”, “in vitro” for “cell”, “The surfaces were denoted Ti (uncoated Ti), P1 (Ti coated with IP10-RGD), P2 (Ti coated with IP10mut-RGD), P3 (Ti coated with IP10-RGDmut) and P4 (Ti coated with IP10mut-RGDmu).” left out
(§3) Total RNA was isolated using Tripure, according to the manufacturer's protocol. Total RNA was quantified at 260 nm using a Nanodrop spectrophotometer. […]
(§4) Each reaction contained 7 μl Lightcycler-FastStart DNA MasterPLUS SYBR Green I (containing Fast Start Taq polymerase, reaction buffer, dNTPs mix, SYBRGreen I dye and MgCl2), 0.5 μM of each, the sense and the antisense specific primers and 3 μl of the cDNA dilution in a final volume of 10 μl. […] After each cycle, fluorescence was measured at 72° C. […]
(§5) All samples were normalized by the geometric mean of the expression levels of 18S rRNA and Gapdh and fold changes were related to day 1 of culture using the mathematical model described by Pfaffl, A new mathematical model for relative quantification in real-time RT-PCR, Nucleic Acids Research 2001, 29: e45: […]

integrin β3 (Itgb3) = assay: as above; settings: after 72 h of cell culture, FIG. 11
Description: as §1, with “Adsorption” for “Absorption”, “in vitro” for “cell”, “The surfaces were denoted Ti (uncoated Ti), P1 (Ti coated with IP10-RGD), P2 (Ti coated with IP10mut-RGD), P3 (Ti coated with IP10-RGDmut) and P4 (Ti coated with IP10mut-RGDmu).” left out
as §3, §4, §5

integrin β3 = assay: Immunocytochemistry of integrin β3 in MC3T3-E1 cells on peptide-coated Ti; settings: after 72 h of culture, FIG. 12
Description: as §1, with “Adsorption” for “Absorption”, “in vitro” for “cell”, “experiments.” for “experiments. The surfaces were denoted Ti (uncoated Ti), P1 (Ti coated with IP10-RGD), P2 (Ti coated with IP10mut-RGD), P3 (Ti coated with IP10-RGDmut) and P4 (Ti coated with IP10mut-RGDmu).”
as §2, with “α-MEM” for “α-minimum essential medium (α-MEM)”, “FBS” for “fetal bovine serum (FBS)”, “4” for “15”
Cells grown for 24 and 72 h on the surfaces were fixed for 15 min with 4% formaldehyde in PBS at room temperature. Cells were incubated with 0.1% Triton X-100 for 5 min, 1% bovine serum albumin for 30 min and then with anti-integrin beta-3 antibody for 1 h at 1:50 dilution in PBS. Then, a Cy3-conjugated goat anti-rabbit IgG was used as secondary antibody for 1.5 h at 1:200 dilution in PBS. For actin cytoskeleton visualization, cells were stained with phalloidin-FITC 5 μg/mL in PBS for 30 min. Cells were washed with PBS and coin-shaped samples were placed on slides. Finally, a drop of Fluoroshield with DAPI was added and cover glasses were mounted on the samples. Two samples of each group were used to perform the experiment and two images of each sample were taken with the confocal microscope (Leica DMI 4000B equipped with Leica TCS SPE laser system).

“MKKKGEGGGGGGGGRGDS (IP-10 derived peptide connected to RGD motif via poly-G-linker) [Peptide P1, surface P1 = Ti coated with it]” was tested, and the “number of cells (DNA quantification)” value (MC3T3-E1 cells) was “highest number of cells”, the “expression of Itga8 compared with uncoated surfaces” value (Integrin α8 (Itga8)) was “increased gene expression” and the “expression of Itgb3 compared with uncoated surfaces” value (integrin β3 (Itgb3)) was “increased gene expression”. The “integrin β3 staining” value (integrin β3) was “allowed integrin β3 visualization; also recorded: highest integrin β3 staining; also recorded: allowed specific anti-integrin β3 staining”.
